From ChEMBL document CHEMBL1128159, “Synthesis and evaluation of diacylhydrazines as inhibitors of the interleukin-1 converting enzyme (ICE)” (Bioorg Med Chem Lett, 1995)
Where a SMILES comes first, the peptide text is derived from it.

What was measured:
Caspase-1 (Homo sapiens) = biological target: T1, Caspase-1 (Homo sapiens) (UniProt P29466); experiment: Compound was tested for inhibition of IL-1 beta converting enzyme by measuring second order rate of inactivation
T1 sequence (whole entry): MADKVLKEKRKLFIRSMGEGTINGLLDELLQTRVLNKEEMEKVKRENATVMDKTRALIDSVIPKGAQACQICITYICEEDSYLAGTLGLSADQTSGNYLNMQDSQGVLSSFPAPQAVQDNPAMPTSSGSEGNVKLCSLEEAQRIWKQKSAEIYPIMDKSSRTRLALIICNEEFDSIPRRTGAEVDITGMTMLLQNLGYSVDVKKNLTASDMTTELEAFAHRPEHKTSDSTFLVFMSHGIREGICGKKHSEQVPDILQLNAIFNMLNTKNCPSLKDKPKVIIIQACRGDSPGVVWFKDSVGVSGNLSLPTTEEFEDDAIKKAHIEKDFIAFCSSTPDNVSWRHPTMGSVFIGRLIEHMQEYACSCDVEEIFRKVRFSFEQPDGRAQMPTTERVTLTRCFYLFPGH

[1] = Half life of compound in ICE assay buffer (1 mM glutathione) at […] degree C; format: ADME; details: ICE assay buffer with 1 mM glutathione
[2] = Half life of compound in ICE assay buffer (1 mM dithiothreitol) at 25 degree C; format: ADME; details: ICE assay buffer with 1 mM dithiothreitol
[3] = Half life of compound in ICE assay buffer (1 mM dithiothreitol) at 25 degree C (98% intact after 120 h); format: ADME; details: ICE assay buffer with 1 mM dithiothreitol
[4] = Half life of compound in ICE assay buffer (1 mM dithiothreitol) at 25 degree C (89% intact after 120 h); format: ADME; details: ICE assay buffer with 1 mM dithiothreitol

Row | second-order inactivation rate constant (kobs/[I]) (Caspase-1 (Homo sapiens)) | half-life [1] | SMILES | also measured
1 | 118000 M⁻¹ s⁻¹ | 57.6 min | CC(C)[C@H](NC(=O)OCc1ccccc1)C(=O)N[C@@H](C)C(=O)N[C@@H](CC(=O)O)C(=O)COP(=O)(c1ccccc1)c1ccccc1 | 
2 | 290000 M⁻¹ s⁻¹ |  | CC(C)[C@H](NC(=O)OCc1ccccc1)C(=O)N[C@@H](C)C(=O)NC(CC(=O)O)C(=O)COC1=C(Cc2ccccc2)C(=O)OC1 (some centres undefined) | 
3 | 19400 M⁻¹ s⁻¹ | 7800 min | CC(C)[C@H](NC(=O)OCc1ccccc1)C(=O)N[C@@H](C)C(=O)NN(CC(=O)O)C(=O)COP(=O)(c1ccccc1)c1ccccc1 | half-life [3]: > 5 days

The next lines start with the molecule.

Row | SMILES | second-order inactivation rate constant (kobs/[I]) (Caspase-1 (Homo sapiens)) | half-life [1] | also measured
4 | CC(C)[C@H](NC(=O)OCc1ccccc1)C(=O)N[C@@H](C)C(=O)NN(CC(=O)O)C(=O)COc1cc(C(F)(F)F)nn1-c1ccccc1 | 470 M⁻¹ s⁻¹ |  | 
5 | CC(C)[C@H](NC(=O)OCc1ccccc1)C(=O)N[C@@H](C)C(=O)NN(CC(=O)O)C(=O)COC1=C(Cc2ccccc2)C(=O)OC1 | 120 M⁻¹ s⁻¹ |  | 
6 | CC(C)[C@H](NC(=O)OCc1ccccc1)C(=O)N[C@@H](C)C(=O)N[C@@H](CC(=O)O)C(=O)CCl (HELM PEPTIDE1{[O=C(OCc1ccccc1)[*:2]].V.A.D.[ClC[*:1]]}$$$$V2.0) |  |  | half-life [2]: 15 min
7 | CC(C)[C@H](NC(=O)OCc1ccccc1)C(=O)N[C@@H](C)C(=O)NN(CC(=O)O)C(=O)CBr | 1640 M⁻¹ s⁻¹ |  | 
8 | CC(C)[C@H](NC(=O)OCc1ccccc1)C(=O)N[C@@H](C)C(=O)NN(CC(=O)O)C(=O)CCl | 27300 M⁻¹ s⁻¹ | 210 min | half-life [4]: > 5 days
9 | CC(C)[C@H](NC(=O)OCc1ccccc1)C(=O)N[C@@H](C)C(=O)NN(CC(=O)O)C(=O)COC(=O)c1c(Cl)cccc1Cl | 700 M⁻¹ s⁻¹ |  | 
